Reference: patent US10227345B2, “Compounds and methods for inhibiting fascin” (Cornell University, priority 2014, dated 2019)

Target: T1, human fascin 1 (Homo sapiens, UniProt Q16658)
T1 construct: GST (N, cleaved yes); made in house; host or cells: Escherichia coli BL21/DE3 (pGEX4T-fascin 1 plasmid)
Assay: Fascin inhibition (actin bundling) assay, image-based
Assay type: biochemical
Details: in the presence of 50 μm of the compound relative to bundle activity when the compound was not present; read-out: Inhibition (percentage reduction of bundle activity)
Method: Recombinant human fascin 1 was expressed as a GST fusion protein in BL21 Escherichia coli. One liter of 2YT medium with ampicillin was inoculated overnight with 3 mL of BL21/DE3 culture transformed with pGEX4T-fascin 1 plasmid and grown at 37° C. until attenuance at 600 nm (D600) reached about 0.8. The culture was then transferred to 18° C. and induced by the addition of 0.1 mM isopropyl β-d-thiogalactoside (IPTG) for 12 h. Bacteria were harvested by centrifugation at 5,000 r.p.m. for 10 min. The pellets were suspended in 30 mL of PBS supplemented with 0.2 mM PMSF, 1 mM DTT, 1% (v/v) Triton X-100 and 1 mM EDTA. After sonication, the suspension was centrifuged at 15,000 r.p.m. for 30 min to remove the cell debris. The supernatant was then incubated for 2 h with 4 mL of glutathione beads (Sigma) at 4° C. After extensive washing with PBS, the beads were resuspended in 10 mL of thrombin cleavage buffer (20 mM Tris-HCl pH 8.0, 150 mM NaCl, 2 mM CaCl2, 1 mM DTT). Fascin was released from the beads by incubation overnight with 40-100 U of thrombin at 4° C. After centrifugation, 0.2 mM PMSF was added to the supernatant to inactivate the remnant thrombin activity. The fascin protein was further concentrated with a Centricon® (Boca Raton, Fla.) filter to about 50 mg/mL.
Representative compounds described herein were tested for fascin inhibition activity. Purified fascin protein (15 μL of 0.5 μM) in buffer (100 mM KCl, 20 mM Tris/HCl, pH 7.5, 2 mM MgCl2) was added into each well of a clear 384-well flat-bottom plate (Corning) using Thermo Multidrop Combi (Fisher). Compound solutions (5 mM stock, 180 nL) were pin transferred from stock 384-well plates into the 384-well assay plates and incubated for 30 min. Then 15 μL of 0.5 μM polymerized actin (in 100 mM KCl, 20 mM Tris/HCl, pH 7.5, 2 mM MgCl2, 1 mM DTT, 1 mM ATP) (Cytoskeleton Inc.) was added, resulting in 30 μM final concentration for chemical compounds. […] Mixed solution (25 μL) was then transferred to one well in a black 384-well plate coated with poly-D-lysine, and stained actin bundles or F-actin would stick onto the poly-D-lysine plates. After the plates were thoroughly washed with 1×PBS for 3 times, the plate was imaged using an ImageXpress Micro High Content Screening System (Molecular devices). The images were processed and analyzed using MetaMorph software. The raw image data for each well was background-corrected by subtraction of the median intensities across all wells on the plate. The background-corrected data was used to compute the bundle length for each well. The negative control wells were employed for quality control: multiple DMSO-only control wells (16 wells/plate) were present on each assay plate.

SMILES	inhibition at 50 µM [%]
Cc1occc1C(=O)Nc1nn(Cc2ccc(F)cc2)c2ccccc12 [Compound 74, N-(1-(4-fluorobenzyl)-1H-indazol-3-yl)-2-methylfuran-3-carboxamide]	< 10
O=C(Nc1nn(Cc2ccc(C(F)(F)F)cc2)c2ccccc12)c1cc2ccccc2o1 [Compound 2, N-(1-(4-(trifluoromethyl)benzyl)-1H-indazol-3-yl)benzofuran-2-carboxamide]	< 10
Cc1occc1-c1nn(Cc2ccc(C(F)(F)F)cc2)c2ccccc12 [Compound 148, 3-(2-methylfuran-3-yl)-1-(4-(trifluoromethyl)benzyl)-1H-indazole]	10
FC(F)(F)c1ccc(Cn2nc(Br)c3ccccc32)cc1 [Compound 143, 3-Bromo-1-(4-(trifluoromethyl)benzyl)-1H-indazole]	10
Cc1ncsc1C(=O)Nc1nn(Cc2ccc(Cl)cc2)c2ccccc12 [Compound 68, N-(1-(4-chlorobenzyl)-1H-indazol-3-yl)-4-methylthiazole-5-carboxamide]	50
Cc1nocc1C(=O)Nc1nn(Cc2ccc(C#N)cc2)c2ccccc12 [Compound 86, N-(1-(4-cyanobenzyl)-1H-indazol-3-yl)-3-methylisoxazole-4-carboxamide]	< 10
Cc1nocc1C(=O)Nc1nn(Cc2ccc(F)cc2)c2ccccc12 [Compound 72, N-(1-(4-fluorobenzyl)-1H-indazol-3-yl)-3-methylisoxazole-4-carboxamide]	< 10
Cc1ccc2c(NC(=O)c3conc3C)nn(Cc3ccc(C(F)(F)F)cc3)c2n1 [Compound 133, 3-methyl-N-(6-methyl-1-(4-(trifluoromethyl)benzyl)-1H-pyrazolo[3,4-b]pyridin-3-yl)isoxazole-4-carboxamide]	< 10
N#Cc1ccc(Cn2nc(NC(=O)c3ccoc3)c3ccccc32)cc1 [Compound 85, N-(1-(4-cyanobenzyl)-1H-indazol-3-yl)furan-3-carboxamide]	< 10
O=C(Nc1nn(Cc2ccc(F)cc2)c2ccccc12)c1ccno1 [Compound 73, N-(1-(4-fluorobenzyl)-1H-indazol-3-yl)isoxazole-5-carboxamide]	50
CNc1nn(Cc2ccc(C(F)(F)F)cc2)c2cncc(Cl)c12 [Compound 149]	10
CCC(=O)Nc1nn(Cc2ccc(C(F)(F)F)cc2)c2cncc(Cl)c12 [Compound 151, N-(4-chloro-1-(4-(trifluoromethyl)benzyl)-1H-pyrazolo[3,4-c]pyridin-3-yl)propionamide]	80
CC(C)C(=O)Nc1nn(Cc2ccc(C(F)(F)F)cc2)c2cncc(Cl)c12 [Compound 152, N-(4-chloro-1-(4-(trifluoromethyl)benzyl)-1H-pyrazolo[3,4-c]pyridin-3-yl)isobutyramide]	100
O=C(Nc1nn(Cc2ccc(F)cc2)c2ccccc12)c1ccoc1 [Compound 71, N-(1-(4-fluorobenzyl)-1H-indazol-3-yl)furan-3-carboxamide]	< 10

The next lines start with the values.

inhibition at 50 µM [%]	SMILES
< 10	Cc1ccccc1C(=O)Nc1nn(Cc2ccc(C(F)(F)F)cc2)c2ccccc12 [Compound 15, 2-methyl-N-(1-(4-(trifluoromethyl)benzyl)-1H-indazol-3-yl)benzamide]
< 10	N#Cc1ccc2c(c1)c(NC(=O)c1cccnn1)nn2Cc1ccc(C(F)(F)F)nc1 [N-(5-cyano-1-((6-(trifluoromethyl)pyridin-3-yl)methyl)-1H-indazol-3-yl)pyridazine-3-carboxamide]
< 10	O=C(Nc1nn(Cc2ccc(C(F)(F)F)cc2)c2ccccc12)c1cnc[nH]1 [Compound 26, N-(1-(4-(trifluoromethyl)benzyl)-1H-indazol-3-yl)-1H-imidazole-5-carboxamide]
< 10	Cc1ccoc1C(=O)Nc1nn(Cc2ccc(C(F)(F)F)cc2)c2ccccc12 [Compound 29, 3-methyl-N-(1-(4-(trifluoromethyl)benzyl)-1H-indazol-3-yl)furan-2-carboxamide]
< 10	O=C(Nc1nn(Cc2ccc(C(F)(F)F)nc2)c2cccc(Cl)c12)c1cccnn1 [Compound 121, N-(4-chloro-1-((6-(trifluoromethyl)pyridin-3-yl)methyl)-1H-indazol-3-yl)pyridazine-3-carboxamide]
< 10	Cc1nocc1C(=O)Nc1nn(Cc2ccc(C(F)(F)F)cc2)c2cc(C(F)(F)F)ccc12 [Compound 108]
< 10	Cc1occc1C(=O)Nc1nn(Cc2ccc(C(F)(F)F)cc2)c2ccc(C(F)(F)F)cc12 [Compound 125, 2-methyl-N-(5-(trifluoromethyl)-1-(4-(trifluoromethyl)benzyl)-1H-indazol-3-yl)furan-3-carboxamide]
< 10	Cc1cc(C(=O)Nc2nn(Cc3ccc(C(F)(F)F)cc3)c3ccccc23)oc1C [Compound 1, 4,5-dimethyl-N-(1-(4-(trifluoromethyl)benzyl)-1H-indazol-3-yl)furan-2-carboxamide]
< 10	Cc1csc(C(=O)Nc2nn(Cc3ccc(C(F)(F)F)cc3)c3ccccc23)n1 [Compound 11, 4-methyl-N-(1-(4-(trifluoromethyl)benzyl)-1H-indazol-3-yl)thiazole-2-carboxamide]
60	Cc1ocnc1C(=O)Nc1nn(Cc2ccc(C(F)(F)F)cc2)c2ccccc12 [Compound 31, 5-methyl-N-(1-(4-(trifluoromethyl)benzyl)-1H-indazol-3-yl)oxazole-4-carboxamide]
50	O=C(Nc1nn(Cc2ccc(C(F)(F)F)cc2)c2ccccc12)c1ccccc1Cl [Compound 5, 2-chloro-N-(1-(4-(trifluoromethyl)benzyl)-1H-indazol-3-yl)benzamide]
< 10	O=C(Nc1nn(Cc2ccc(C(F)(F)F)cc2)c2ccccc12)c1cc(F)ccc1F [Compound 21, 2,5-difluoro-N-(1-(4-trifluoromethyl)benzyl)-1H-(indazol-3-yl)benzamide]
< 10	O=C(Nc1nn(Cc2ccc(C(F)(F)F)cc2)c2ccccc12)c1sccc1F [Compound 37, 3-fluoro-N-(1-(4-(trifluoromethyl)benzyl)-1H-indazol-3-yl)thiophene-2-carboxamide]
< 10	O=C(Nc1nn(Cc2ccc(C(F)(F)F)nc2)c2ccc(C(F)(F)F)cc12)c1cccnn1 [Compound 127, N-(5-(trifluoromethyl)-1((6-(trifluoromethyl)pyridin-3-yl)methyl)-1H-indazol-3-yl)pyridazine-3-carboxamide]
100	O=C(Nc1nn(Cc2ccc(C(F)(F)F)cc2)c2ccccc12)c1cnco1 [Compound 40, N-(1-(4-(trifluoromethyl)benzyl)-1H-indazol-3-yl)oxazole-5-carboxamide]
< 10	O=C(Nc1nn(Cc2ccc(C(F)(F)F)nc2)c2ccccc12)c1cccnn1 [Compound 96, N-(1-((6-(trifluoromethyl)pyridin-3-yl)methyl)-1H-indazol-3-yl)pyridazine-3-carboxamide]
< 10	O=C(Nc1nn(Cc2ccc(C(F)(F)F)cc2)c2ccccc12)c1sccc1Cl [Compound 41, 3-chloro-N-(1-(4-(trifluoromethyl)benzyl)-1H-indazol-3-yl)thiophene-2-carboxamide]
50	O=C(Nc1nn(Cc2ccc(C(F)(F)F)cc2)c2ccccc12)c1ccsn1 [Compound 39, N-(1-(4-(trifluoromethyl)benzyl)-1H-indazol-3-yl)isothiazole-3-carboxamide]
< 10	O=C(Nc1nn(Cc2ccc(C(F)(F)F)cc2)c2ccccc12)c1ccccn1 [Compound 55, N-(1-(4-(trifluoromethyl)benzyl)-1H-indazol-3-yl)picolinamide]
10	O=C(Nc1nn(Cc2ccc(C(F)(F)F)cc2)c2ccccc12)c1ccc(Cl)cc1 [Compound 6, 4-chloro-N-(1-(4-(trifluoromethyl)benzyl)-1H-indazol-3-yl)benzamide]
< 10	Cc1nocc1C(=O)Nc1nn(Cc2ccc(C(F)(F)F)cc2)c2c(C(F)(F)F)cccc12 [Compound 113, 3-methyl-N-(7-(trifluoromethyl)-1-(4-(trifluoromethyl)benzyl)-1H-indazol-3-yl)isoxazole-4-carboxamide]
